Data: patent US11287431B2, “Method of testing for pulmonary hypertension” (TOHOKU UNIVERSITY, priority 2014, dated 2022)

Tested on: pulmonary artery smooth muscle cells (PASMC) in idiopathic pulmonary arterial hypertension (IPAH) patients
Assay: Selenoprotein P protein secretion by IPAH-PASMC at hypoxia, western blot of whole cell lysates and conditioned medium
Type: cell-based, human
Details: IPAH-PASMC cultured 24 hours at hypoxia (oxygen concentration: 2%) in the presence of fasudil (hydroxyfasudil concentration: 10 μM), versus normoxia and hypoxia alone
From the text: The response of pulmonary artery smooth muscle cells (PASMC) in idiopathic pulmonary arterial hypertension (IPAH) patients (hereinafter also referred to as IPAH-PASMC) to hypoxia stimulation was observed.
Primary cell lines were established from pulmonary vascular smooth muscle in idiopathic pulmonary arterial hypertension patients, in accordance with the following document: Ogawa A, Nakamura K, Matsubara H, Fujio H, Ikeda T, Kobayashi K, Miyazaki I, Asanuma M, Miyaji K, Miura D, Kusano K F, Date H, Ohe T, Circulation, 2005; 112: 1806-1812. The pulmonary vascular smooth muscle in idiopathic pulmonary arterial hypertension patients was isolated from pulmonary arteries having an outer diameter of 1.5 mm or less.
IPAH-PASMC was cultured in D-MEM medium supplemented by 10% FBS (fetal bovine serum) at 37° C. under constant temperature and constant humidity conditions at 95% air and 5% CO2 in accordance with a usual method. In this test, passage 4 to 7 cells at a confluence of 70 to 80% were used. […]
After culturing, whole cell lysates and a conditioned medium were prepared for each sample, and selenoprotein P protein was detected by western blot analysis.

O=S(=O)(c1cccc2cnccc12)N1CCCNCC1 [fasudil]
extracellular secretion of selenoprotein P protein (into the medium): enhanced secretion of selenoprotein P protein was not observed
